Our source for the IC50 values is US10392404B2, “Compounds and compositions as kinase inhibitors” (NOVARTIS AG, priority 2014, dated 2019).

In test [1] the target is T1, C-RAF (Homo sapiens, UniProt P04049, Y340E/Y341E).
T1 construct: His tag (implied by nickel chromatography) (cleaved yes); StrepII tag (cleaved yes); made in house; host or cells: Sf9 insect cells (baculovirus), CRAF and h14-3-3 zeta co-expressed; MEK1 substrate from E. coli
Description: In vitro Raf activity determination (Alpha Screen, biotinylated kinase-dead MEK1 substrate), C-Raf. The format is biochemical. To be noted: c-Raf approximately 4 nM; ATP 1 μM; pre-incubation 60 minutes; reaction 1 hour at room temperature. In short, it runs like this: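 AlphaScreen read-out of MEK phosphorylation using an anti-phospho-MEK1/2 antibody after a 1 hour room-temperature reaction at 1 μM ATP. Enzyme: approximately 4 nM Sf9-expressed full-length activated C-Raf (Y340E/Y341E, with 14-3-3ζ) on approximately 10 nM biotinylated K97R MEK1, after 60 min compound preincubation. IC50 by non-linear fit.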

The target of test [2] is T2, b-Raf (V600E) (Homo sapiens, UniProt P15056, V600E).
T2 construct: made in house
Description: In vitro Raf activity determination (Alpha Screen, biotinylated kinase-dead MEK1 substrate), B-Raf. To be noted: b-Raf (V600E) approximately 4 pM; ATP 10 μM; pre-incubation 60 minutes; reaction 3 hours at room temperature. The test is classed as biochemical. The essentials:
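IC50 from non-linear regression of AlphaScreen phospho-MEK signal (anti-p-MEK1/2 antibody). b-Raf(V600E), about 4 pM, phosphorylated ~10 nM biotinylated K97R MEK1 with 10 μM ATP for 3 h at room temperature after 60 min compound pre-incubation; buffer pH 7.5 Tris, 15 mM MgCl2, 1 mM DTT.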

T2 sequence (P15056 whole entry V600E): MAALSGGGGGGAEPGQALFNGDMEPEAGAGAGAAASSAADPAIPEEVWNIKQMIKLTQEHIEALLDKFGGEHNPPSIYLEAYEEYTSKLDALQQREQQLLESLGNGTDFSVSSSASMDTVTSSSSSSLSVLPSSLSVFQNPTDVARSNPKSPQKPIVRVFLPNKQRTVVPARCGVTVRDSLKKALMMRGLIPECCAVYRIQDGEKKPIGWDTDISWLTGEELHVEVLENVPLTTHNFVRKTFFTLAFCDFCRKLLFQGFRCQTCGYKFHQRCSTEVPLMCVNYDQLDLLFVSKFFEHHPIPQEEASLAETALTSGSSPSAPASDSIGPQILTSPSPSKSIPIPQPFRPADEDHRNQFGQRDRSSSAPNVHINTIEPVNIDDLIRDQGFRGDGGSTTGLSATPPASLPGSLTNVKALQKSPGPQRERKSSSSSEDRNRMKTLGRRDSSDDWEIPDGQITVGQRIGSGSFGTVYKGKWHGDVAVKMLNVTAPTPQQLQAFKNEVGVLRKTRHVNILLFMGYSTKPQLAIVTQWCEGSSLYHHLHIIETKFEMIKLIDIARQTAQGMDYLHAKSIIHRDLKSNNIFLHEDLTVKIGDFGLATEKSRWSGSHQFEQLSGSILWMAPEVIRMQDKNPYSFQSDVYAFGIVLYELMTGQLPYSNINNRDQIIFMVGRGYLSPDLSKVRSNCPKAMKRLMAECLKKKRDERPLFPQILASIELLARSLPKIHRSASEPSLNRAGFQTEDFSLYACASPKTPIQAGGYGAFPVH
T1 sequence (P04049 whole entry Y340E/Y341E): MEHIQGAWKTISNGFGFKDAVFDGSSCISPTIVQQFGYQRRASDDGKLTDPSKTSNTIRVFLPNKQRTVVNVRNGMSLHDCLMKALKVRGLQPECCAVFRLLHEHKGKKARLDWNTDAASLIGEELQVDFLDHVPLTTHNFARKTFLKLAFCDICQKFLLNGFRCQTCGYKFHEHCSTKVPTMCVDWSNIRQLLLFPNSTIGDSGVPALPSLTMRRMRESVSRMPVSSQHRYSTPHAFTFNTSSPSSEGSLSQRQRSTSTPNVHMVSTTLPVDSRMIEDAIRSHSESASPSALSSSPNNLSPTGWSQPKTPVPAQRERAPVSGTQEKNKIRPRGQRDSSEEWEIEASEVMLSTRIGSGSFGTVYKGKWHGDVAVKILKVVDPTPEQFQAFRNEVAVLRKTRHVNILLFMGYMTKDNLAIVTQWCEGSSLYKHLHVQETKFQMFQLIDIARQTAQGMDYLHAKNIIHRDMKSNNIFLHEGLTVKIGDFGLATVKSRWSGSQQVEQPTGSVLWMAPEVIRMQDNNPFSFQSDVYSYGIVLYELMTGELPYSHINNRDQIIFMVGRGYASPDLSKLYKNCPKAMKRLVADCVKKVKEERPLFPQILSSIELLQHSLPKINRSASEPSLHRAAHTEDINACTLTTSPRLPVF
T1 sequence (P63104 whole entry partner): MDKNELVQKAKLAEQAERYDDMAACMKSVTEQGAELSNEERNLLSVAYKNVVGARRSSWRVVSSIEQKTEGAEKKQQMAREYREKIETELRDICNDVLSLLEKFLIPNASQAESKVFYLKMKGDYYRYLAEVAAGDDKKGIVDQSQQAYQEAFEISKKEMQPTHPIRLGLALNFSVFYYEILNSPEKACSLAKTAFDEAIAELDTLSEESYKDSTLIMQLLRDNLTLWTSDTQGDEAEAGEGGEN

A word on the IC50: it is the concentration needed to halve the response being measured. The low end stands for greater potency in that assay, the high end for weaker potency in that assay. Regarding `Cc1cc(CC(=O)Nc2cnc(C)c(-c3cnc(N(C)C)c(C#N)c3)c2)on1` [Example 268, N-(5′-cyano-6′-(dimethylamino)-2-methyl-[3,3′-bipyridin]-5-yl)-2-(3-methylisoxazol-5-yl)acetamide], the results for the IC50 in test [1] and in test [2] were 8 nM and 94.2 nM, respectively.

As to `Cc1ccc(NC(=O)c2cc(C(F)(F)F)ccn2)cc1-c1cnc(NC2CCOCC2)c(C#N)c1` [Example 226, N-(3-(5-cyano-6-((tetrahydro-2H-pyran-4-yl)amino)pyridin-3-yl)-4-methylphenyl)-4-(trifluoromethyl) picolinamide], the IC50 is 0.695 nM in test [1] and 2 nM in test [2].

In the case of `Cc1cc(C(=O)Nc2ccc(C)c(-c3cnc(N(C)C)c(C#N)c3)c2)n(C)n1` [Example 254, N-(3-(5-cyano-6-(dimethylamino)pyridin-3-yl)-4-methylphenyl)-1,3-dimethyl-1H-pyrazole-5-carboxamide], the IC50 in test [1] was determined as 38.4 nM; in test [2], 278 nM.

For the molecule `Cc1ncc(NC(=O)c2cc(C(C)(F)F)ccn2)cc1-c1cnc(N2CCOCC2)c(C#N)c1` [Example 238, N-(5′-cyano-2-methyl-6′-morpholino-[3,3′-bipyridin]-5-yl)-4-(1,1-difluoroethyl) picolinamide], the IC50 amounted to 0.333 nM in test [1] and 2.25 nM in test [2].

Regarding `Cc1ccc(NC(=O)c2ccnc(C(C)(C)C#N)c2)cc1-c1cc(C#N)cnc1N` [Example 12, N-(3-(2-amino-5-cyanopyridin-3-yl)-4-methylphenyl)-2-(2-cyanopropan-2-yl)isonicotinamide], the IC50 is 1.81 nM in test [1] and 27.8 nM in test [2].

`Cc1ncc(NC(=O)c2cccc(C(F)(F)F)c2)cc1-c1cnc(-c2ccncc2)c(C#N)c1` [Example 106, N-(5′-cyano-2-methyl-[3,3′:6′,4″- terpyridin]-5-yl)-3-(trifluoromethyl) benzamide]: the figures for the IC50 in test [1] and in test [2] were 0.391 nM and 2.19 nM, respectively.

With `Cc1ccc(NC(=O)c2ccnc(C(C)(C)C#N)c2)cc1-c1cnc(N2CC(C)(O)C2)c(C#N)c1` [Example 29, N-(3-(5-cyano-6-(3-hydroxy-3-methylazetidin-1-yl)pyridin-3-yl)-4-methylphenyl)-2-(2-cyanopropan-2-yl)isonicotinamide], the 50% inhibitory concentration (IC50) in test [1] came out at 0.671 nM; in test [2] it was 4.05 nM.

Consider `Cc1ncc(NC(=O)c2cc(C(C)(C)F)ccn2)cc1-c1cnc(N2CCOCC2)c(C#N)c1` [Example 242, N-(5′-cyano-2-methyl-6′-morpholino-[3,3′-bipyridin]-5-yl)-4-(2-fluoropropan-2-yl)picolinamide], for which the IC50 in test [1] was 0.539 nM; in test [2], 3.18 nM.

For `CCCNc1ncc(-c2cc(NC(=O)c3ccnc(C(F)(F)F)c3)ccc2C)cc1C#N` [Example 40, N-(3-(5-cyano-6-(propylamino)pyridin-3-yl)-4-methylphenyl)-2-(trifluoromethyl) isonicotinamide], the half-maximal inhibitory concentration (IC50) in test [1] came out at 0.233 nM; in test [2] it was 1.57 nM.

With `COCCNc1ncc(-c2cc(NC(=O)c3ccnc(C(C)(C)C#N)c3)ccc2C)cc1C#N` [Example 176, N-(3-(5-cyano-6-((2-methoxyethyl)amino)pyridin-3-yl)-4-methylphenyl)-2-(2-cyanopropan-2-yl)isonicotinamide], the 50% inhibitory concentration (IC50) in test [1] was determined as 0.398 nM; in test [2] it was 1.58 nM.

Consider `Cc1ncc(NC(=O)c2ccnc(C(F)(F)F)c2)cc1-c1cnc(N2CC(O)C2)c(C#N)c1` [Example 69, N-(5′-cyano-6′-(3-hydroxyazetidin-1-yl)-2-methyl-[3,3′-bipyridin]-5-yl)-2-(trifluoromethyl) isonicotinamide], for which the IC50 was determined as 0.46 nM in test [1] and 2.56 nM in test [2].

Take `Cc1ccc(NC(=O)c2ccnc(C3(C#N)CC3)c2)cc1-c1cnc(N2CC(C)(O)C2)c(C#N)c1` [Example 220, N-(3-(5-cyano-6-(3-hydroxy-3-methylazetidin-1-yl)pyridin-3-yl)-4-methylphenyl)-2-(1-cyanocyclopropyl) isonicotinamide]: the IC50 in test [1] was 0.183 nM; in test [2] it was 0.939 nM.

As to `Cc1ncc(NC(=O)c2ccnc(C(F)(F)F)c2)cc1-c1cnc(-n2ccccc2=O)c(C#N)c1` [Example 51, N-(3′-cyano-2″- methyl-2-oxo-2H-[1,2′:5′,3″- terpyridin]-5″-yl)-2-(trifluoromethyl) isonicotinamide], the half-inhibitory concentration (IC50) is 101 nM in test [1] and 447 nM in test [2].

Consider `Cc1ncc(NC(=O)c2cc(C(C)(F)F)ccn2)cc1-c1cnc(N2CC(C)(O)C2)c(C#N)c1` [Example 239], for which the IC50 in test [1] stood at 0.711 nM; in test [2] it was 6.38 nM.

With `Cc1ncc(NC(=O)c2ccnc(C(C)(C)C#N)c2)cc1-c1cnc(NC2CCOC2)c(C#N)c1` (stereo not drawn) [Example 77, N-(5′-cyano-2-methyl-6′-((tetrahydrofuran-3-yl)amino)-[3,3′-bipyridin]-5-yl)-2-(2-cyanopropan-2-yl)isonicotinamide], the 50% inhibitory concentration (IC50) was 2.53 nM in test [1] and 9.28 nM in test [2].

As for `Cc1ccc(NC(=O)c2cc(C(C)(C)C#N)ccn2)cc1-c1cnc(N2CC(C)(O)C2)c(C#N)c1` [Example 232, N-(3-(5-cyano-6-(3-hydroxy-3-methylazetidin-1-yl)pyridin-3-yl)-4-methylphenyl)-4-(2-cyanopropan-2-yl)picolinamide], the IC50 is 0.42 nM in test [1] and 3.18 nM in test [2].

`Cc1cc(CC(=O)Nc2ccc(C)c(-c3cnc(N(C)C)c(C#N)c3)c2)on1` [Example 257, N-(3-(5-cyano-6-(dimethylamino)pyridin-3-yl)-4-methylphenyl)-2-(3-methylisoxazol-5-yl)acetamide]: the half-inhibitory concentration (IC50) turned out to be 1.36 nM in test [1] and 12.9 nM in test [2].

As for `Cc1ccc(NC(=O)c2ccnc(C(C)(C)C#N)c2)cc1-c1cnc(NC2CC2)c(C#N)c1` [Example 19, N-(3-(5-cyano-6-(cyclopropylamino)pyridin-3-yl)-4-methylphenyl)-2-(2-cyanopropan-2-yl)isonicotinamide], the IC50 in test [1] worked out at 0.397 nM; in test [2], 2.15 nM.

For `Cc1ccc(NC(=O)c2ccnc(S(C)(=O)=O)c2)cc1-c1cnc(N2CCOCC2)c(C#N)c1` [Example 156, N-(3-(5-cyano-6-morpholinopyridin-3-yl)-4-methylphenyl)-2-(methylsulfonyl) isonicotinamide], the concentration for half-maximal inhibition (IC50) in test [1] is 0.0597 nM; in test [2] it was 0.35 nM.

Turning to `COCCNc1ncc(-c2cc(NC(=O)c3ccnc(C4(C#N)CC4)c3)cnc2C)cc1C#N` [Example 197, N-(5′-cyano-6′-((2-methoxyethyl)amino)-2-methyl-[3,3′-bipyridin]-5-yl)-2-(1-cyanocyclopropyl) isonicotinamide], the IC50 in test [1] is 0.818 nM; in test [2], 5.23 nM.

For the molecule `Cc1ncc(NC(=O)c2cccc(C(F)(F)F)c2)cc1-c1cnc(N)c(C#N)c1` [Example 4, N-(6′-amino-5′-cyano-2-methyl-[3,3′-bipyridin]-5-yl)-3-(trifluoromethyl) benzamide], the IC50 in test [1] worked out at 0.211 nM; in test [2], 1.63 nM.

As to `Cc1ncc(NC(=O)c2ccnc(C(F)(F)F)c2)cc1-c1cnc(N2CCNCC2)c(C#N)c1` [Example 70, N-(5′-cyano-2-methyl-6′-(piperazin-1-yl)-[3,3′-bipyridin]-5-yl)-2-(trifluoromethyl) isonicotinamide], the concentration for half-maximal inhibition (IC50) in test [1] came out at 0.418 nM; in test [2] it was 0.994 nM.

For `Cc1ccc(NC(=O)c2cc(C3CC3)nn2C)cc1-c1cnc(N(C)C)c(C#N)c1` [Example 255, N-(3-(5-cyano-6-(dimethylamino)pyridin-3-yl)-4-methylphenyl)-3-cyclopropyl-1-methyl-1H-pyrazole-5-carboxamide], the half-inhibitory concentration (IC50) in test [1] came to 4.84 nM; in test [2], 35.6 nM.

Turning to `Cc1ncc(NC(=O)c2ccnc(C(F)(F)F)c2)cc1-c1cnc(C2CCOCC2)c(C#N)c1` [Example 127, N-(5′-cyano-2-methyl-6′-(tetrahydro-2H-pyran-4-yl)-[3,3′-bipyridin]-5-yl)-2-(trifluoromethyl) isonicotinamide], the IC50 is 0.464 nM in test [1] and 3.11 nM in test [2].

Take `Cc1ccc(C(=O)Nc2cccc(C(F)(F)F)c2)cc1-c1cnc(N)c(C#N)c1C` [Example 11, 3-(6-amino-5-cyano-4-methylpyridin-3-yl)-4-methyl-N-(3-(trifluoromethyl)phenyl)benzamide]: the concentration for half-maximal inhibition (IC50) stood at 0.606 nM in test [1] and 9.79 nM in test [2].

Take `Cc1ncc(NC(=O)c2ccnc(C(C)(C)C#N)c2)cc1-c1cnc(-n2ccnc2C)c(C#N)c1` [Example 81, N-(5′-cyano-2-methyl-6′-(2-methyl-1H-imidazol-1-yl)-[3,3′-bipyridin]-5-yl)-2-(2-cyanopropan-2-yl)isonicotinamide]: the figures for the IC50 in test [1] and in test [2] were 15.1 nM and 90.6 nM, respectively.

As to `Cc1ccc(NC(=O)c2cnnc(C(C)(C)C#N)c2)cc1-c1cnc(NC2CCOCC2)c(C#N)c1` [Example 204, N-(3-(5-cyano-6-((tetrahydro-2H-pyran-4-yl)amino)pyridin-3-yl)-4-methylphenyl)-6-(2-cyanopropan-2-yl)pyridazine-4-carboxamide], the IC50 was 0.219 nM in test [1] and 1.45 nM in test [2].
